The record followed here is ChEMBL document CHEMBL3352326, “Synthesis of 2,3-di- and 2,2,3-trisubstituted-3-methoxycarbonyl-γ-butyrolactones as potent antitumor agents” (Eur J Med Chem, 2015).

Holding throughout (format): functional
Experiment [1] relates to KB. Nature of the experiment: Growth inhibition of human KB cells at 10 uM after 72 hrs by MTS assay. The note with it: read-out: GI. On the technique in general: Tetrazolium assays rely on reduction of a dye to a coloured formazan, in cell work by metabolically active cells.
The nature of experiment [2]: Growth inhibition of human HCT116 cells at 10 uM after 72 hrs by MTS assay. The note with it: HCT-116, 72 h, read-out: GI.
For experiment [3], the system named is MCF7. Nature of the experiment: Growth inhibition of human MCF7 cells at 10 uM after 72 hrs by MTS assay. The note with it: MCF7, 72 h, read-out: GI.
Experiment [4] can be described thus: Growth inhibition of human HL60 cells at 10 uM after 72 hrs by MTS assay. The note with it: HL-60, 72 h, read-out: GI.

As for `COC(=O)C1(Cc2ccc3c(c2)OCO3)CC(=O)OC1c1ccccc1` (configuration not stated), the inhibition of growth at 10 µM is 0% in experiment [1], 18% in experiment [2], 11% in experiment [3] and 18% in experiment [4].
As for `COC(=O)C1(Cc2cccc(OC)c2)CC(=O)OC1(C)c1ccccc1` (configuration not stated), the inhibition of growth at 10 µM in experiment [1] amounted to 5%; in experiment [2] it was 14%; in experiment [3], 16%; in experiment [4], 30%.
The matching figures for `COC(=O)C1(Cc2ccc(C(F)(F)F)cc2)CC(=O)OC1(C)c1ccccc1` (configuration not stated): 15%, 25%, 19% and 28%.
The corresponding values for `COC(=O)C1(Cc2cccc(C(F)(F)F)c2)CC(=O)OC1c1ccccc1` (configuration not stated) are 39%, 14%, 11% and 34%.
On to `COC(=O)C1(Cc2ccccc2C(F)(F)F)CC(=O)OC1c1ccccc1` (configuration not stated), for which the inhibition of growth at 10 µM came out at 42% in experiment [1], 25% in experiment [2], 35% in experiment [3] and 28% in experiment [4].
The matching figures for `COC(=O)C1(Cc2ccccc2)CC(=O)OC1(C)c1cc(OC)c(OC)c(OC)c1` (configuration not stated): 0%, 0%, 2% and 7%.
Consider `COC(=O)C1(Cc2ccc(OC)cc2)CC(=O)OC1c1ccc(F)cc1` (configuration not stated), for which the inhibition of growth at 10 µM in experiment [1] amounted to 33%; in experiment [2], 0%; in experiment [3] it was 4%; in experiment [4], 37%.
The matching figures for `COC(=O)C1(Cc2ccc(OC)cc2)CC(=O)OC1c1ccc(C(F)(F)F)cc1` (configuration not stated): 0%, 0%, 4% and 2%.
The corresponding values for `COC(=O)c1ccc(CC2(C(=O)OC)CC(=O)OC2(C)c2ccccc2)cc1` (configuration not stated) are 22%, 44%, 35% and 43%.
The matching figures for `COC(=O)C1(Cc2cccc(OC)c2)CC(=O)OC1c1ccccc1` (configuration not stated): 0%, 14%, 12% and 37%.
`COC(=O)C1(Cc2ccc(OC)cc2)CC(=O)OC1(C)c1cccc(C(F)(F)F)c1` (configuration not stated): the inhibition of growth at 10 µM in experiment [1] amounted to 38%; in experiment [2], 30%; in experiment [3] it was 46%; in experiment [4], 52%.
The matching figures for `CCCCCCC1OC(=O)CC1(Cc1ccc(OC)cc1)C(=O)OC` (configuration not stated): 13%, 12%, 28% and 8%.
The corresponding values for `CCC1(c2ccccc2)OC(=O)CC1(Cc1ccccc1)C(=O)OC` (configuration not stated) are 22%, 25%, 12% and 17%.
The corresponding values for `COC(=O)C1(Cc2cc(OC)c(OC)c(OC)c2)CC(=O)OC1c1ccccc1` (configuration not stated) are 0%, 16%, 1% and 7%.
Turning to `COC(=O)C1(Cc2ccccc2)CC(=O)OC12CCCCC2` (configuration not stated), the inhibition of growth at 10 µM in experiment [1] was found to be 7%; in experiment [2], 0%; in experiment [3], 1%; in experiment [4], 4%.
The corresponding values for `COC(=O)C1(Cc2ccc(OC)cc2)CC(=O)OC1c1ccco1` (configuration not stated) are 32%, 0%, 0% and 29%.
The matching figures for `COC(=O)C1(Cc2ccc3c(c2)OCO3)CC(=O)OC1c1cc(OC)c(OC)c(OC)c1` (configuration not stated): 0%, 22%, 8% and 10%.
The matching figures for `COC(=O)C1(Cc2ccccc2)CC(=O)OC1(C)c1cccc(C(F)(F)F)c1` (configuration not stated): 34%, 14%, 14% and 20%.
With `COC(=O)C1(Cc2cccc(C(F)(F)F)c2)CC(=O)OC1(C)c1ccccc1` (configuration not stated), the inhibition of growth at 10 µM in experiment [1] came to 21%; in experiment [2], 22%; in experiment [3], 20%; in experiment [4], 21%.
Turning to `COC(=O)C1(Cc2ccc(OC)cc2)CC(=O)OC1c1cc(OC)c(OC)c(OC)c1` (configuration not stated), the inhibition of growth at 10 µM in experiment [1] stood at 16%; in experiment [2], 24%; in experiment [3] it was 27%; in experiment [4] it was 32%.
Regarding `COC(=O)C1(Cc2ccc(OC)cc2)CC(=O)OC1(C)c1cc(OC)c(OC)c(OC)c1` (configuration not stated), the inhibition of growth at 10 µM in experiment [1] turned out to be 0%; in experiment [2], 8%; in experiment [3] it was 7%; in experiment [4] it was 24%.
The corresponding values for `COC(=O)[C@]1(Cc2ccc(OC)cc2)CC(=O)O[C@]1(C)c1ccccc1` are 15%, 0%, 0% and 24%.
The matching figures for `COC(=O)C1(Cc2ccccc2)CC(=O)OC1c1ccccc1` (configuration not stated): 18%, 0%, 0% and 22%.
Regarding `COC(=O)C1(Cc2ccccc2OC)CC(=O)OC1(C)c1ccccc1` (configuration not stated), the inhibition of growth at 10 µM turned out to be 9% in experiment [1], 13% in experiment [2], 10% in experiment [3] and 34% in experiment [4].
The matching figures for `COC(=O)C1(Cc2ccc(OC)cc2)CC(=O)OC1c1ccccc1C(F)(F)F` (configuration not stated): 31%, 0%, 0% and 23%.
The matching figures for `COC(=O)C1(Cc2ccccc2)CC(=O)OC1(C)c1ccccc1` (configuration not stated): 6%, 9%, 13% and 22%.
The matching figures for `COC(=O)C1(Cc2ccccc2)CC(=O)OC1c1cc(OC)c(OC)c(OC)c1` (configuration not stated): 2%, 7%, 17% and 27%.
`COC(=O)C1(Cc2ccccc2C(F)(F)F)CC(=O)OC1(C)c1ccccc1` (configuration not stated): the inhibition of growth at 10 µM in experiment [1] is 0%; in experiment [2], 18%; in experiment [3] it was 6%; in experiment [4] it was 0%.
On to `COC(=O)C1(Cc2ccc(OC)cc2)CC(=O)OC1(c1ccccc1)C(F)(F)F` (configuration not stated), for which the inhibition of growth at 10 µM in experiment [1] came out at 56%; in experiment [2] it was 20%; in experiment [3] it was 8%; in experiment [4], 64%.
The matching figures for `COC(=O)C1(Cc2ccccc2OC)CC(=O)OC1c1ccccc1` (configuration not stated): 7%, 23%, 18% and 42%.
The matching figures for `COC(=O)C1(Cc2ccc(C(F)(F)F)cc2)CC(=O)OC1c1ccccc1` (configuration not stated): 4%, 4%, 0% and 4%.
The matching figures for `COC(=O)C1(Cc2cccc(OC)c2)CC(=O)OC1c1cc(OC)c(OC)c(OC)c1` (configuration not stated): 0%, 20%, 13% and 10%.
Regarding `COC(=O)C1(Cc2ccccc2OC)CC(=O)OC1c1cc(OC)c(OC)c(OC)c1` (configuration not stated), the inhibition of growth at 10 µM in experiment [1] amounted to 6%; in experiment [2] it was 19%; in experiment [3], 12%; in experiment [4] it was 22%.
The corresponding values for `COC(=O)C1(Cc2ccc(OC)cc2)CC(=O)OC1c1ccccc1` (configuration not stated) are 19%, 4%, 0% and 15%.
Regarding `COC(=O)C1(Cc2cc(OC)c(OC)c(OC)c2)CC(=O)OC1c1cc(OC)c(OC)c(OC)c1` (configuration not stated), the inhibition of growth at 10 µM in experiment [1] was 0%; in experiment [2], 13%; in experiment [3], 3%; in experiment [4] it was 0%.
Consider `COC(=O)[C@@]1(Cc2ccc(OC)cc2)CC(=O)O[C@]1(C)c1ccccc1`, for which the inhibition of growth at 10 µM in experiment [1] stood at 98%; in experiment [2], 56%; in experiment [3], 59%; in experiment [4] it was 68%.
The matching figures for `CCC1(c2ccccc2)OC(=O)CC1(Cc1ccc(OC)cc1)C(=O)OC` (configuration not stated): 11%, 28%, 21% and 30%.
Consider `COC(=O)C1(Cc2ccccc2)CC(=O)OC1(C)C` (configuration not stated), for which the inhibition of growth at 10 µM in experiment [1] is 0%; in experiment [2] it was 15%; in experiment [3], 7%; in experiment [4], 9%.
